The subject of data set [1] is C. neoformans H99. Nature of the data set: Antifungal susceptibility testing, CLSI broth microdilution (Example 496/497). The format is cell-based, Cryptococcus neoformans. The conditions noted are these: for MIC: Cryptococcus neoformans, H99, 72 h, read-out: MIC C. neoformans H99; for MIC C. neoformans H99: 50% reduction in fungal growth, 72 h, 35° C. An excerpt: (§1) Isolates tested. C. neoformans strains H99, DUMC 118.00, DUMC 158.03 and C. gattii strains R272, and RSA-MW-3515 were obtained from Duke University. C. albicans 90028, A. fumigatus MYA3626, C. neoformans 14116, C. neoformans 76484 and the pathogenic Cryptococcus reference strains panel (ATCC MP-11) were obtained from American Type Culture Collection (ATCC, Manassas, Va., USA). The MP-11 panel consists of strains representing eight molecular types and three subtypes of C. neoformans and C. gattii.
(§2) Antifungal susceptibility testing. To establish antimicrobial activity, broth microdilution susceptibility testing was performed according to Clinical and Laboratory Standards Institute (CLSI) guidelines M27-A3 for yeasts and M38-A2 for molds. Compound 2 and analogs were first diluted in DMSO to obtain intermediate dilutions. These were further diluted in microtiter plates to obtain a final concentration of 2 to 0.002 μg/mL. 1 μl of DMSO was added to “No drug” control wells. The solutions were mixed on a plate shaker for 10 mins and plates incubated at 35° C. for 40 to 48 h (C. albicans, A. fumigatus) and 72 h (C. neoformans). The minimum concentration that led to 50% reduction in fungal growth as compared to the control (with the aid of a reading mirror) was determined as the minimum inhibitory concentration (MIC) for C. albicans and C. neoformans. The minimum concentration that led to shortening of hyphae as compared to hyphal growth in DMSO control wells was determined as the minimum effective concentration (MEC) for A. fumigatus (as read for echinocandins). The use of the MIC and MEC endpoints for Compound 2 against yeasts and molds, respectively has been described previously.

In data set [2] the test system is C. neoformans H99. Nature of the data set: Synergy with FLC, standard microtiter checkerboard dilution. The format is cell-based, Cryptococcus neoformans. The conditions noted are these: synergy = FICI <0.5, MIC read at 50% inhibition. How it is done:
Gwt1 inhibitors are synergistic with FLC. […] Importantly, no antagonism was observed.
as §2

The next data set relates to C. neoformans isolates. Nature of the data set: Activity vs susceptible and FLC non-susceptible/resistant strains, broth microdilution. The format is cell-based, Cryptococcus neoformans.
Source text: (§3) The activity of Gwt1 inhibitors against susceptible and FLC non-susceptible/resistant strains.
as §1
(§4) Antifungal susceptibility testing. To establish antimicrobial activity, broth microdilution susceptibility testing was performed according to Clinical and Laboratory Standards Institute (CLSI) guidelines M27-A3 for yeasts and M38-A2 for molds. Compound 2 and analogs were first diluted in DMSO to obtain intermediate dilutions. These were further diluted in microtiter plates to obtain a final concentration of 2 to 0.002 μg/mL. 1 μl of DMSO was added to “No drug” control wells. The solutions were mixed on a plate shaker for 10 mins and plates incubated at 35° C. for 40 to 48 h (C. albicans, A. fumigatus) and 72 h (C. neoformans). The minimum concentration that led to 50% reduction in fungal growth as compared to the control (with the aid of a reading mirror) was determined as the minimum inhibitory concentration (MIC) for C. albicans and C. neoformans.

The next data set has as its system A. fumigatus MYA3626. Nature of the data set: Antifungal susceptibility testing, CLSI broth microdilution (Example 496/497). The conditions noted are these: MEC, shortening of hyphae, 40 to 48 h. The format is cell-based, Aspergillus fumigatus.
Source text: as §1, §2

The subject of data set [3] is C. neoformans strain H99. Nature of the data set: Delayed treatment model of cryptococcal meningitis, CD-1 mice. The format is in vivo, Cryptococcus neoformans. The conditions noted are these: treatment from 24 h after infection, 7 days; prodrug 60 mg/kg IP QD with 100 mg/kg ABT PO; AMB 3 mg/kg IP; n=5. How it is done:
Infection was initiated on Day 1 and treatment was initiated 24 h later (Day 2) rather than 1 h. Treatments were administered for 7 days (final dose on Day 8) and mice were sacrificed on Day 9 for CFU enumeration.
Delayed treatment model. […] Fungal burden data were log10 transformed and evaluated using Kruskal-Wallis tests with Dunn's Multiple Comparison Test for Post-hoc analysis (Prism 5; GraphPad Software, Inc., San Diego, Calif.). A P value of ≤0.05 is considered statistically significant

In another data set the test system is C. gattii WM276. Nature of the data set: Antifungal susceptibility testing, CLSI broth microdilution (Example 496/497). The format is cell-based, Cryptococcus gattii. The conditions noted are these: 50% reduction in fungal growth.
Source text: as §1, §2

The test system of data set [4] is strains of C. neoformans and C. gattii. Nature of the data set: Activity vs Cryptococcus, summary over the strains tested. The format is cell-based, Cryptococcus neoformans and Cryptococcus gattii. The conditions noted are these: for MIC90: panel of 18 isolates of C. neoformans and C. gattii.
Source text: as §3, §1, §4

The next data set has as its system C. albicans 90028. Nature of the data set: Antifungal susceptibility testing, CLSI broth microdilution (Example 496/497). The format is cell-based, Candida albicans. The conditions noted are these: MIC, 50% reduction in growth, 40 to 48 h.
Source text: as §1, §2

The next data set concerns C. gattii isolates. Nature of the data set: Activity vs susceptible and FLC non-susceptible/resistant strains, broth microdilution. The format is cell-based, Cryptococcus gattii.
Source text: as §3, §1, §4

In data set [5] the test system is C. neoformans US isolates. The conditions noted are these: cited from earlier work.
Data set [6] has as its system Candida tropicalis strains. The conditions noted are these: cited from earlier work.
For data set [7] the following is noted: mouse, in vivo; cited from earlier work.
Another data set has as its system strains of C. albicans. The conditions noted are these: cited from earlier work.
The test system of data set [8] is C. neoformans strain H99. Nature of the data set: Murine model of cryptococcal meningitis, Compound 1 alone and with FLC (no ABT), CD-1 mice. The format is in vivo, Cryptococcus neoformans. The conditions noted are these: Compound 1 390 mg/kg PO thrice daily or FLC 80 mg/kg/day IP, 7 days, n=10. Here is the method:
Treatment was initiated within 1 h after infection.
Mice were weighed daily and observed for acute and chronic adverse symptoms. […] Fungal burden data were log10 transformed and evaluated using Kruskal-Wallis tests with Dunn's Multiple Comparison Test for Post-hoc analysis (Prism 5; GraphPad Software, Inc., San Diego, Calif.).

For data set [9], the system named is 46 strains of C. neoformans. The conditions noted are these: global study; cited from earlier work.

Values after ≈ are worked out from the molar mass of the structure shown.

In the case of `Nc1ncccc1-c1cc(Cc2ccc(OCc3ccccc3)cc2)no1`, the MIC in the data set on C. neoformans H99 [1] was 0.031 µg/mL (≈ 0.0867 µM). Besides, the “fold improved anti-C. neoformans H99 activity compared to Compound 2” value in the data set with C. neoformans H99 [1] (from MIC values) came out at 8 fold. For the same compound, the “FICI in combination with FLC” value with C. neoformans H99 [2] worked out at 0.37.

Regarding `C[C@@H]1[C@H](O)[C@@H](C)/C=C/C=C/C=C/C=C/C=C/C=C/C=C/[C@H](O[C@@H]2O[C@H](C)[C@@H](O)[C@H](N)[C@@H]2O)C[C@@H]2O[C@](O)(C[C@@H](O)C[C@@H](O)[C@H](O)CC[C@@H](O)C[C@@H](O)CC(=O)O[C@H]1C)C[C@H](O)[C@H]2C(=O)O` [AMB, amphotericin B, reference compound], the MIC stood at 0.25 µg/mL (≈ 0.271 µM) in the data set on C. neoformans isolates (C. neoformans 14116); 0.25 µg/mL (≈ 0.271 µM) with C. neoformans isolates (C. neoformans 76484); 0.25 µg/mL (≈ 0.271 µM) against C. neoformans isolates (C. neoformans DUMC 118.00 (FLC-resistant)); 1 µg/mL (≈ 1.08 µM) with C. neoformans isolates (C. neoformans DUMC 158.03 (FLC-resistant)); 0.25 µg/mL (≈ 0.271 µM) with C. neoformans isolates (C. neoformans H99); 0.25 µg/mL (≈ 0.271 µM) in the data set with C. neoformans isolates (C. neoformans MYA-4564). For the same compound, the MIC in the data set with C. neoformans isolates (C. neoformans MYA-4565) came out at 0.125 µg/mL (≈ 0.135 µM); in the data set with C. neoformans isolates (C. neoformans MYA-4566), 0.25 µg/mL (≈ 0.271 µM); in the data set on C. neoformans isolates (C. neoformans MYA-4567), 0.25 µg/mL (≈ 0.271 µM); with C. gattii isolates (C. gattii MYA-4093) it was 0.25 µg/mL (≈ 0.271 µM); with C. gattii isolates (C. gattii MYA-4094), 0.25 µg/mL (≈ 0.271 µM); against C. gattii isolates (C. gattii MYA-4560), 0.063 µg/mL (≈ 0.0682 µM). The MIC in the data set with C. gattii isolates (C. gattii MYA-4561) amounted to 0.25 µg/mL (≈ 0.271 µM); against C. gattii isolates (C. gattii MYA-4562), 0.25 µg/mL (≈ 0.271 µM); in the data set on C. gattii isolates (C. gattii MYA-4563) it was 0.125 µg/mL (≈ 0.135 µM); with C. gattii isolates (C. gattii MYA-4877), 0.25 µg/mL (≈ 0.271 µM); with C. gattii isolates (C. gattii RSA-MW-3615 (FLC-resistant)) it was 0.25 µg/mL (≈ 0.271 µM). In addition, in the data set with A. fumigatus MYA3626, the “MIC or MEC A. fumigatus MYA3626” value came to 1 µg/mL (≈ 1.08 µM). Also, in the data set on C. neoformans H99 [1], the “MIC C. neoformans H99” value worked out at 0.25 µg/mL (≈ 0.271 µM). Moreover, the “reduction of log10 CFU/g lung vs untreated control, delayed treatment” value in the data set with C. neoformans strain H99 [3] came out at 4.02 log10 CFU/g. For the same compound, the “MIC C. gattii WM276” value in the data set on C. gattii WM276 stood at 0.25 µg/mL (≈ 0.271 µM). In addition, the “MIC GEOMEAN” value in data set [4] (geometric mean over the 18 isolates of C. neoformans and C. gattii) is 0.215 µg/mL (≈ 0.233 µM). Further, the MIC90 in data set [4] stood at 0.25 µg/mL (≈ 0.271 µM). In the data set with C. albicans 90028, the “MIC or MEC C. albicans 90028” value is 1 µg/mL (≈ 1.08 µM). Besides, the “MIC90 versus C. neoformans, US isolates” value in data set [5] is 2 µg/mL (≈ 2.16 µM).

In the case of `Nc1ncccc1-c1cc(Cc2ccc(COc3ccccn3)cc2)no1` [Compound 2], the “MIC or MEC A. fumigatus MYA3626” value against A. fumigatus MYA3626 turned out to be 0.008 µg/mL (≈ 0.0223 µM). Further, in the data set on C. neoformans H99 [1], the “MIC C. neoformans H99” value worked out at 0.25 µg/mL (≈ 0.698 µM). The “MIC C. gattii WM276” value in the data set with C. gattii WM276 stood at 0.125 µg/mL (≈ 0.349 µM). Besides, the “FICI in combination with FLC” value with C. neoformans H99 [2] stood at 0.37. In data set [4], this compound registered an MIC90 of 0.5 µg/mL (≈ 1.4 µM). Further, the results for the “strains with synergy with FLC” value (in [6]; with strains of C. albicans) were 9 of 10 and 2 of 20, respectively. Further, in data set [7], the half-life in mice is 1.40 to 2.75 h. For the same compound, the “MIC or MEC C. albicans 90028” value with C. albicans 90028 is 0.008 µg/mL (≈ 0.0223 µM).

On to `OC(Cn1cncn1)(Cn1cncn1)c1ccc(F)cc1F` [FLC, fluconazole], for which the MIC in the data set on C. neoformans H99 [1] was 2 µg/mL (≈ 6.53 µM); against C. gattii WM276 (Cryptococcus gattii, WM276), 1 µg/mL (≈ 3.27 µM). For the same compound, the “reduction in lung fungal burden vs untreated control, monotherapy” value with C. neoformans strain H99 [8] came to 1.30 log10 CFU/g.

`OC(Cn1cncn1)(Cn1cncn1)c1ccc(F)cc1F` [FUC]: the “MIC90 versus 46 strains of C. neoformans” value in data set [9] is 4 µg/mL.

As to `OC(Cn1cncn1)(Cn1cncn1)c1ccc(F)cc1F` [fluconazole, Fluconazole], the “reduction in brain fungal burden vs control group, monotherapy” value in the data set with C. neoformans strain H99 [8] is 1.04 log10 CFU/g.

Turning to `C[C@@H](c1nc(-c2ccc(C#N)cc2)cs1)[C@](O)(Cn1cncn1)c1cc(F)ccc1F` [isavuconazole], the “MIC90 versus 46 strains of C. neoformans” value in [9] was 0.06 µg/mL.

The record behind these values is US11512079B2, “Heterocycle substituted pyridine derivative antifungal agents” (Amplyx Pharmaceuticals, Inc., priority 2017, dated 2022).
